Results reported in ChEMBL document CHEMBL6120934, “Isolation and Characterization of Insecticidal Cyclotides from Viola communis” (J Nat Prod, 2025).
Bridge positions count the residues as written; N and C are the ends. Peptide text beside a SMILES is read from it.

test: Cytotoxicity against Spodoptera frugiperda Sf9 cells assessed as inhibition of cell viability incubated for 24 hrs by resazurin assay; type: toxicity, cell-based

SMILES | CC50 at 24 h
CC(C)[C@H](NC(=O)[C@@H]1CCCN1C(=O)[C@H](C)NC(=O)CN)C(=O)N[C@H]1CSSC[C@@H]2NC(=O)CNC(=O)[C@@H]3CCCN3C(=O)[C@H]([C@@H](C)O)NC(=O)[C@H](CC(N)=O)NC(=O)[C@@H]3CSSC[C@@H](C(=O)N[C@@H](CO)C(=O)N[C@@H](CCCCN)C(=O)N[C@@H](CC(N)=O)C(=O)O)NC(=O)[C@H](C(C)C)NC(=O)[C@@H]4CCCN4C(=O)[C@H](Cc4c[nH]c5ccccc45)NC(=O)[C@@H]4CCCN4C(=O)[C@H](CC(=O)O)NC(=O)[C@H](CSSC[C@H](NC(=O)[C@H]([C@@H](C)O)NC(=O)[C@H](CCC(=O)O)NC(=O)CNC1=O)C(=O)N[C@@H](Cc1ccccc1)C(=O)NCC(=O)NCC(=O)N[C@@H]([C@@H](C)O)C(=O)N3)NC(=O)[C@H]([C@@H](C)O)NC2=O (H-GAPVCGETCFGGTCNTPGCTCDPWPVCSKN-OH; disulfide 5-19, 9-21, 14-27) | 7610 nM
CC(C)C[C@@H]1NC(=O)CNC(=O)[C@H](CC(N)=O)NC(=O)[C@H](CCCNC(=N)N)NC(=O)[C@H]([C@@H](C)O)NC(=O)[C@@H]2CSSC[C@@H]3NC(=O)[C@H]([C@@H](C)O)NC(=O)CNC(=O)CNC(=O)[C@H](C(C)C)NC(=O)[C@@H]4CSSC[C@H](NC(=O)[C@H]([C@@H](C)O)NC(=O)[C@H](CSSC[C@H](NC(=O)[C@H](C(C)C)NC(=O)[C@@H]5CCCN5C1=O)C(=O)NCC(=O)N[C@@H](CCC(=O)O)C(=O)N[C@@H]([C@@H](C)O)C(=O)N4)NC(=O)CNC(=O)[C@@H]1CCCN1C(=O)[C@H]([C@@H](C)O)NC(=O)[C@H](CC(N)=O)NC3=O)C(=O)N[C@@H](CO)C(=O)N[C@@H](Cc1c[nH]c3ccccc13)C(=O)N1CCC[C@H]1C(=O)N[C@@H](C(C)C)C(=O)N2 | 2310 nM
CC[C@H](C)[C@@H]1NC(=O)[C@@H]2CSSC[C@@H](C(=O)N[C@@H](Cc3ccc(O)cc3)C(=O)N[C@@H](CCCCN)C(=O)N[C@@H](CC(N)=O)C(=O)O)NC(=O)[C@H](C(C)C)NC(=O)[C@H](CCCCN)NC(=O)[C@H](CO)NC(=O)[C@H](CCCCN)NC(=O)[C@@H]3CSSC[C@H](NC(=O)[C@H](CO)NC(=O)[C@H](CCC(=O)O)NC(=O)CNC(=O)[C@@H](NC(=O)[C@@H]4CCCN4C(=O)[C@H](CC(C)C)NC(=O)[C@@H](NC(=O)CN)[C@@H](C)O)CSSC[C@H](NC(=O)CNC(=O)[C@H](C(C)C)NC(=O)[C@H](C(C)C)NC(=O)[C@H](CO)NC(=O)[C@H](CO)NC1=O)C(=O)N[C@@H](CO)C(=O)N3)C(=O)N[C@@H](C(C)C)C(=O)N[C@@H](Cc1c[nH]c3ccccc13)C(=O)N[C@@H]([C@@H](C)CC)C(=O)N1CCC[C@H]1C(=O)N2 (H-GTLPCGESCVWIPCISSVVGCSCKSKVCYKN-OH; disulfide 5-21, 9-23, 14-28) | 110 nM
CC[C@H](C)[C@@H]1NC(=O)[C@H](C(C)C)NC(=O)[C@H](CO)NC(=O)[C@H](CO)NC(=O)[C@H](Cc2ccccc2)NC(=O)[C@@H]2CSSC[C@@H](C(=O)N[C@@H](Cc3ccc(O)cc3)C(=O)N[C@@H](CC(N)=O)C(=O)O)NC(=O)[C@H](C(C)C)NC(=O)[C@H](CCCCN)NC(=O)[C@H](CC(N)=O)NC(=O)[C@H](CCCCN)NC(=O)[C@@H]3CSSC[C@H](NC(=O)[C@H](CO)NC(=O)[C@H](CCC(=O)O)NC(=O)CNC(=O)[C@@H](NC(=O)[C@@H]4CCCN4C(=O)[C@@H](NC(=O)[C@H](C)NC(=O)[C@H](C)N)C(C)C)CSSC[C@H](NC(=O)CNC1=O)C(=O)N[C@@H](CO)C(=O)N3)C(=O)N[C@@H](C(C)C)C(=O)N[C@@H](Cc1c[nH]c3ccccc13)C(=O)N[C@@H]([C@@H](C)CC)C(=O)N1CCC[C@H]1C(=O)N2 (H-AAVPCGESCVWIPCFSSVIGCSCKNKVCYN-OH; disulfide 5-21, 9-23, 14-28) | 160 nM
